Measurements reported in patent US6482802B1 (Endowment for Research in Human Biology, Inc., priority 1998, dated 2002).
“And” between values parts separate entries of the source, which are not always exact repeats. Identical values can stand only once. “Also recorded” adds a separate entry of the source.

Experiments:
[1] = tested on: nuclear translocation of 125I-angiogenin in HUVE cells; assay: Nuclear translocation of 125I-angiogenin in HUVE cells; conditions: for Nuclear 125I-angiogenin: 37° C. 30 min, control 3090 ± 260; for Nuclear 125I-angiogenin / % inhibition of nuclear translocation of angiogenin: 125I-angiogenin 1 μg/ml 30 min; for effect on nuclear translocation of 125I-angiogenin: HUVE cells, concentrations as in Table 1
[2] = tested on: chorioallantoic membrane (CAM) of chick embryos; assay: CAM assay, VEGF-induced angiogenesis; type: in vivo; conditions: VEGF 10 ng alone
Experimental: (§1) Angiogenesis was measured on the CAM by the method of Knighton et al. (Knighton et al., 1977, Br. J. Cancer 35:347-356) essentially as described (Fett et al., 1985, Biochemistry 24:5480-5486). Fertilized chicken eggs were kept at 18° C. for 2 days and then incubated in a humidified environment at 37° C. for 3 days. Albumin was aspirated from the embryos and after 24 hours, a “window” was cut through the shell and covered with clear tape. […] After 48-68 hours at 37° C., the growth of blood vessels was observed microscopically and recorded as either positive or negative. A positive response (i.e., an angiogenic response) has a typical “spokewheel” appearance.

[3] = tested on: HUVE cells; assay: Cytotoxicity against HUVE cells; type: cell-based, human; conditions: concentration not given
Experimental: Human umbilical vein endothelial (HUVE) cells were purchased from Cell Systems Corp. (Kirkland, Wash.). […] Cells between passages 5 and 12 inclusive were used for all experiments. Cell numbers were determined with a Coulter counter, and cell viability was measured by trypan blue dye exclusion assay.

[4] = tested on: HUVE cells; assay: Angiogenin-induced proliferation of HUVE cells; type: cell-based, human; conditions: for inhibition of angiogenin-induced cell proliferation: aminoglycoside 100 μM (Table 3); for Cell number / percent of cell number in the presence of 1 μg/ml angiogenin relative to the corresponding control: aminoglycoside 100 μM; for percent of cell number in the presence of 1 μg/ml angiogenin relative to the corresponding control: none: 120
Experimental: (§2) HUVE cells were seeded at 4×10^3 cells/cm^2 in attachment factor (Cell Systems Corp.)-coated 35 mm dishes in HE-SFM, and incubated with 1 μg/ml angiogenin in the presence or absence of inhibitors at 37° C. for 48 hr. Cell were detached by trypsinization and cell numbers were determined with a Coulter counter.

[5] = tested on: HUVE cells; assay: bFGF-induced proliferation of HUVE cells, aminoglycoside antibiotics; type: cell-based, human; conditions: aminoglycoside 100 μM; for % Inhibition of bFGF-induced cell proliferation / bFGF (10 ng/ml) Cell Numbers: bFGF 10 ng/ml; for bFGF (10 ng/ml) Cell Numbers / Control (cell number without bFGF): 48 hr; for bFGF (10 ng/ml) Cell Numbers: control 99000 ± 1000; for Control (cell number without bFGF): no bFGF, control 61300 ± 500
Experimental: as §2
The ability of the other members of the aminoglycoside antibiotic family to inhibit bFGF-induced proliferation of HUVE cells was examined in a similar manner as for angiogenin as described in Section 6.1.1.5, above. HUVE cells, passage 9, were seeded on attachment-factor coated dishes at 50,000 cells per 35 mm dish in HE-SFM. Aminoglycoside antibiotics were added and the cells were incubated with or without […] at 37° C. for 48 hr.

[6] = tested on: chorioallantoic membrane (CAM) of chick embryos; assay: CAM assay, aFGF-induced angiogenesis; type: in vivo; conditions: aFGF 10 ng alone
Experimental: as §1

[7] = tested on: chorioallantoic membrane (CAM) of chick embryos; assay: CAM assay, angiogenin-induced angiogenesis; type: in vivo; conditions: for inhibition of angiogenin-induced angiogenesis in CAM assay: in vivo
Experimental: as §1

[8] = tested on: chorioallantoic membrane (CAM) of chick embryos; assay: CAM assay, EGF-induced angiogenesis; type: in vivo; conditions: EGF 10 ng alone
Experimental: as §1

[9] = tested on: chorioallantoic membrane (CAM) of chick embryos; assay: CAM assay, bFGF-induced angiogenesis; type: in vivo; conditions: bFGF 10 ng alone
Experimental: as §1

[10] = with angiogenin 1 μg/ml, none: 62,500 ± 100
[11] = without angiogenin, none: 52,000 ± 100

For `COc1ccc2c(c1)CC[C@@H]1[C@@H]2CC[C@]2(C)[C@@H](NCCCCCCN3C(=O)C=CC3=O)CC[C@@H]12` [U-73122], the “Nuclear 125I-angiogenin” value ([1]; inhibitor 10 μM) was 2140 ± 30 cpm and the “% inhibition of nuclear translocation of angiogenin” value ([1]; inhibitor 10 μM, 10 µM) was 30% and 31%.
With VEGF the Positive eggs ([2]; 27 total eggs) was 17 and the “% Positive” value ([2]; water 21) was 63%.
For gentamicin, the “cytotoxicity against HUVE cells” value [3] was “no cytotoxicity”, the “inhibition of angiogenin-induced cell proliferation” value [4] was “None” and the Cell number [4, 10] was 55,700 ± 900. For the same compound, the Cell number [4, 11] was 45,700 ± 500, the “percent of cell number in the presence of 1 μg/ml angiogenin relative to the corresponding control” value [4] was 121% and the “significant inhibitory effect on cell proliferation induced by bFGF” value (“significant inhibitory effect” for short) [5] was “no”. The “% Inhibition of bFGF-induced cell proliferation” value [5] was 5%, the “bFGF (10 ng/ml) Cell Numbers” value [5] was 98400 ± 1900 and the “Control (cell number without bFGF)” value [5] was 61800 ± 1200.
For `NC[C@H]1O[C@H](O[C@H]2[C@H](O)[C@@H](O[C@H]3O[C@H](CO)[C@@H](O)[C@H](N)[C@H]3O)[C@H](N)C[C@@H]2N)[C@H](O)[C@@H](O)[C@@H]1O` [Kanamycin, kanamycin], the “cytotoxicity against HUVE cells” value [3] was “no cytotoxicity”, the Cell number [4, 10] was 58,900 ± 200 and the Cell number [4, 11] was 48,800 ± 400. For the same compound, the “percent of cell number in the presence of 1 μg/ml angiogenin relative to the corresponding control” value [4] was 121%, the “% Inhibition of bFGF-induced cell proliferation” value [5] was 8% and the “bFGF (10 ng/ml) Cell Numbers” value [5] was 98000 ± 2500. The “Control (cell number without bFGF)” value [5] was 62600 ± 1100.
In the case of aFGF: acidic fibroblast growth factor, the Positive eggs ([6]; 49 total eggs) is reported as 36 and the “% Positive” value ([6]; water 21) is reported as 73%.
In the case of “Angiogenin: Human angiogenin (Met-1), recombinant product from an Escherichia coli expression system”, the “increase of cell number after 48 hr” value ([4]; angiogenin 1 μg/ml, no neomycin) is reported as 35% and the “% Positive (angiogenic response)” value ([7]; angiogenin 10 ng alone, water 20) is reported as 55%.
In the case of `CN[C@@H]1C[C@H]2O[C@@](C)([C@@H]1OC)n1c3ccccc3c3c4c(c5c6ccccc6n2c5c31)C(=O)NC4` [Staurosporine, staurosporine], the “effect on nuclear translocation of 125I-angiogenin” value (from here on “effect on nuclear translocation”) [1] is reported as “only marginally inhibitory; also recorded: do not inhibit nuclear translocation of angiogenin” and the “Nuclear 125I-angiogenin” value ([1]; inhibitor 100 nM) is reported as 2710 ± 70 cpm.
For `[H]/N=C(/N)N[C@H]1[C@H](O)[C@@H](O)[C@H](O[C@@H]2O[C@@H](C)[C@](O)(C=O)[C@H]2O[C@@H]2O[C@@H](CO)[C@H](O)[C@@H](O)[C@@H]2NC)[C@@H](N/C(N)=N\[H])[C@@H]1O` [Streptomycin, streptomycin], the “cytotoxicity against HUVE cells” value [3] was “no cytotoxicity”, the “inhibition of angiogenin-induced cell proliferation” value [4] was “None” and the Cell number [4, 10] was 59,900 ± 900. For the same compound, the Cell number [4, 11] was 51,900 ± 1,300, the “percent of cell number in the presence of 1 μg/ml angiogenin relative to the corresponding control” value [4] was 115% and the “inhibition of angiogenin-induced angiogenesis in CAM assay” value [7] was “do not inhibit angiogenin-induced angiogenesis”. The “significant inhibitory effect” value [5] was “no”, the “% Inhibition of bFGF-induced cell proliferation” value [5] was 0% and the “bFGF (10 ng/ml) Cell Numbers” value [5] was 104200 ± 400. The “Control (cell number without bFGF)” value [5] was 62300 ± 600.
With EGF: epidermal growth factor the Positive eggs ([8]; 26 total eggs) was 18 and the “% Positive” value ([8]; water 21) was 69%.
`O=c1c(-c2ccc(O)cc2)coc2cc(O)cc(O)c12` [Genistein, genistein] was tested, and the “effect on nuclear translocation” value [1] was “no effect; also recorded: do not inhibit nuclear translocation of angiogenin”, the inhibition at 100 µM ([1]; Homo sapiens, 0.5 h, read-out: % inhibition of nuclear translocation of angiogenin) was 0% and the “Nuclear 125I-angiogenin” value ([1]; inhibitor 100 μM) was 3300 ± 170 cpm.
In the case of `NC[C@@H]1O[C@H](O[C@H]2[C@@H](O)[C@H](O[C@@H]3[C@@H](O)[C@H](N)C[C@H](N)[C@H]3O[C@H]3O[C@H](CO)[C@@H](O)[C@H](O)[C@H]3N)O[C@@H]2CO)[C@H](N)[C@@H](O)[C@@H]1O` [Paromomycin, paromomycin], the “cytotoxicity against HUVE cells” value [3] is reported as “no cytotoxicity”, the “inhibition of angiogenin-induced cell proliferation” value [4] is reported as “did not inhibit angiogenin-induced cell proliferation; also recorded: no inhibitory activity at all” and the Cell number [4, 10] is reported as 58,900 ± 400. The Cell number [4, 11] was 50,900 ± 500 and the “percent of cell number in the presence of 1 μg/ml angiogenin relative to the corresponding control” value [4] was 116%.
For bFGF: basic fibroblast growth factor, the Positive eggs ([9]; 37 total eggs) was 29 and the “% Positive” value ([9]; water 21) was 78%.
`NCC[C@H](O)C(=O)N[C@@H]1C[C@H](N)[C@@H](O[C@H]2O[C@H](CN)[C@@H](O)[C@H](O)[C@H]2O)[C@H](O)[C@H]1O[C@H]1O[C@H](CO)[C@@H](O)[C@H](N)[C@H]1O` [Amikacin, amikacin] was tested, and the “cytotoxicity against HUVE cells” value [3] was “no cytotoxicity”, the “inhibition of angiogenin-induced cell proliferation” value [4] was “None” and the Cell number [4, 10] was 61,000 ± 400. For the same compound, the Cell number [4, 11] was 51,700 ± 200, the “percent of cell number in the presence of 1 μg/ml angiogenin relative to the corresponding control” value [4] was 118% and the “inhibition of angiogenin-induced angiogenesis in CAM assay” value [7] was “do not inhibit angiogenin-induced angiogenesis”. For the same compound, the “significant inhibitory effect” value [5] was “no”, the “% Inhibition of bFGF-induced cell proliferation” value [5] was 11% and the “bFGF (10 ng/ml) Cell Numbers” value [5] was 97600 ± 1300. The “Control (cell number without bFGF)” value [5] was 63000 ± 900.
In the case of `COc1ccc2c(c1)CC[C@@H]1[C@@H]2CC[C@]2(C)[C@@H](NCCCCCCN3C(=O)CCC3=O)CC[C@@H]12` [U-73343], the “effect on nuclear translocation” value [1] is reported as “no effect”, the “Nuclear 125I-angiogenin” value ([1]; inhibitor 10 μM) is reported as 2890 ± 100 cpm and the “% inhibition of nuclear translocation of angiogenin” value ([1]; inhibitor 10 μM) is reported as 6%.
